Paper PMC9721373 (Antiviral Research, 2022)
Where a name gives a salt, the structure may show the parent alone.

System: SARS2-S-mediated membrane fusion
Type: cell-based, SARS-CoV-2

## CC(CN(C)C)CN1c2ccccc2Sc2ccccc21 (centres unmarked) [Alimemazine tartrate]
  SARS2-S-mediated membrane fusion (average number of nuclei in each syncytium): reduced the formation of syncytia
  membrane fusion by mutant SARS2-S (Δ69–70, N501Y, E484K, D614G): reduced the formation of syncytia
